The values that follow are results of earlier work, collected in patent US10195206B2, “Two-component pharmaceutical composition for the treatment of pain” (BRIDGE THERAPEUTICS, INC., priority 2005, dated 2019).

For data set [1] the following is noted: in vivo.
The conditions of data set [2]: in vivo. This is another data set of the same source.

On to `CO[C@]12CCC3(C[C@@H]1[C@](C)(O)C(C)(C)C)[C@H]1Cc4ccc(O)c5c4[C@@]3(CCN1CC1CC1)[C@H]2O5.Cl` [Buprenorphine, 17-(cyclopropylmethyl)-α-(1,1-dimethylethyl)-4,5-epoxy-18,19-dihydro-3-hydroxy-6-methoxy-α-methyl-6,14-ethenomorphian-7-methanol], for which the solubility in water result was “limited solubility”. Further, in data set [1], the “oral and/or gastrointestinal bioavailability” value is “poor”. The half-life entry in data set [2] is reported as “approximately 36 hours”.

With `CN1C(C(=O)Nc2ccccn2)=C(O)c2ccccc2S1(=O)=O` [Piroxicam, 4-hydroxyl-2-methyl-N-2-pyridinal-2H-1,2-benzothiazine-3-carboximide 1,1-dioxide], the solubility in water result was “sparingly soluble”. Besides, the half-life result in data set [2] was “approximately 50 hours”.
